Reference: article PMC10179505, “Rivastigmine–Benzimidazole Hybrids as Promising Multitarget Metal-Modulating Compounds for Potential Treatment of Neurodegenerative Diseases” (International Journal of Molecular Sciences, 2023)
Like-named read-outs stand apart in the source and are kept apart here.

Key:
SH-SY5Y cells = assay type: cell-based, human; conditions: for protection on MPP+-induced toxicity (cell viability, MTT): 1 µM compound, 1 h pre-incubation, then 0.5 mM MPP+ for 24 h
Method: SH-SY5Y human neuroblastoma cells were kept in culture under a humidified atmosphere of 5% CO2 at 37 °C in Dulbecco’s Modified Eagle Medium/Nutrient Mixture F-12 (DMEM/F-12) (Gibco, Thermo Fisher Scientific) supplemented with 10% heat-inactivated fetal bovine serum (FBS), 50 U/mL penicillin, and 50 μg/mL streptomycin. Cells were plated at a density of 1 × 10^5 cells/mL and pre-incubated for 1 h with the compounds by adding them to the medium at the following final concentrations: 1 µM for compounds 4a, 4b, and 5b; 2 µM for compounds 4c and 5a; and 3 µM for compound 4d. Then the cells were incubated for 24 h with MPP^+ (1-methyl-4-phenylpyridinium, Sigma-Aldrich) (1 h pre-incubation + 24 h incubation) at the final concentration of 0.5 mM. MPP^+ was freshly prepared in sterile water on the day of the experiment. The compounds were dissolved in DMSO, aliquoted, and stored at −20 °C; their toxicity was previously studied through cell viability assays to select the highest non-toxic concentration of each compound.
Cell viability was measured by the colorimetric MTT (3-(4,5-dimethylthiazol-2-yl)-2,5-diphenyltetrazolium bromide) reduction assay, which follows the principle that viable cells can metabolize MTT into formazan that absorbs light at 570 nm. After the cell treatments with the compounds and MPP^+, the culture medium was removed, 150 µL of MTT (0.5 mg/mL dissolved in sodium medium) was added to each well, and the 48-well plate was incubated at 37 °C for 2 h. The formazan precipitates were then solubilized with 150 µL of 0.04 M HCl/isopropanol. The absorbance was read at 570 nm using a spectrophotometer (Spectramax Plus 384), and cell viability results were normalized to untreated SH-SY5Y cells, with the means ± SEMs derived from six different experiments performed in duplicate (N = 6). Statistical analyses were performed on GraphPad Prism 8 (GraphPad Software, San Diego, CA, USA) using one-way analysis of variance (ANOVA) followed by Tukey’s post hoc test or using Student’s t-test to determine statistical significance.

hMAO-A = molecular target: T1, hMAO-A (Homo sapiens, UniProt P21397); assay: hMAO-A inhibition (kynuramine to 4-hydroxyquinoline, microsomal recombinant enzyme); assay type: biochemical; conditions: for hMAO isoform selectivity: hMAO-A vs hMAO-B; for inhibition at 10 µM: read-out: % Inhibition (at 10 µM) hMAO-A
T1 construct: purchased Sigma-Aldrich Quimica S.A., Madrid, Spain; host or cells: insect cells (BTI-TN-5B1-4) infected with recombinant baculovirus
T1 sequence (P21397 1-527): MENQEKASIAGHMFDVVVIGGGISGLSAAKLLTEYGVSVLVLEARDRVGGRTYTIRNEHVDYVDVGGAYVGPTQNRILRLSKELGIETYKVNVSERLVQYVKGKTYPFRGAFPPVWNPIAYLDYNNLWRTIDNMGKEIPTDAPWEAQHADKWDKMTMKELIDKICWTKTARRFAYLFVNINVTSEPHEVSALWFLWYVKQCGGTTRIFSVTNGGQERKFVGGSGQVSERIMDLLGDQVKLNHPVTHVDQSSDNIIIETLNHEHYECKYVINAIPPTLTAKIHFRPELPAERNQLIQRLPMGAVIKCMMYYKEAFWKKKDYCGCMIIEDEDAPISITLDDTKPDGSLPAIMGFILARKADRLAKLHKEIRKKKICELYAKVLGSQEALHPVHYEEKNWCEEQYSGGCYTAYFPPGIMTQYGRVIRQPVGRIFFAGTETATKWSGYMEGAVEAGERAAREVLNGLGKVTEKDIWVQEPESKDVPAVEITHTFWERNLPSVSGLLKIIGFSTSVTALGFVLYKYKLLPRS
Method: (§1) The inhibitory activity of the rivastigmine hybrids (RIV–BIM) on hMAO-A and hMAO-B was studied using an experimental protocol described elsewhere with some modifications. The outlined hMAO inhibition was assessed in microsomal MAO isoforms prepared from insect cells (BTI-TN-5B1-4) infected with recombinant baculovirus containing cDNA inserts for hMAO-A or hMAO-B (Sigma-Aldrich Quimica S.A., Madrid, Spain) and by measuring the enzymatic conversion rates of kynuramine into 4-hydroxyquinoline. […] All assays were performed under sodium phosphate-buffered conditions (50 mM, pH = 7.4). […] Then, the reaction was started with the addition of hMAO-A or hMAO-B. Initial velocities were determined spectrophotometrically in a microplate reader (Biotek Synergy HT, Winooski, VT, USA) at 37 °C by measuring the formation of 4-hydroxyquinoline at 316 nm, over a period of at least 30 min (interval of 1 min). Data were analyzed using GraphPad PRISM version 6 for Windows (GraphPad Software®, San Diego, CA, USA). The initial velocities, obtained from the linear phase of product formation, were normalized and plotted against the respective inhibitor concentration. IC50 values were obtained from dose–response curves and were expressed as the mean ± standard deviation. IC50 values were determined from at least three independent experiments, each performed in triplicate.

hMAO-B = molecular target: T2, hMAO-B (Homo sapiens, UniProt P27338); assay: hMAO-B inhibition (kynuramine to 4-hydroxyquinoline, microsomal recombinant enzyme); assay type: biochemical
T2 construct: purchased Sigma-Aldrich Quimica S.A., Madrid, Spain; host or cells: insect cells (BTI-TN-5B1-4) infected with recombinant baculovirus
T2 sequence (P27338 1-520): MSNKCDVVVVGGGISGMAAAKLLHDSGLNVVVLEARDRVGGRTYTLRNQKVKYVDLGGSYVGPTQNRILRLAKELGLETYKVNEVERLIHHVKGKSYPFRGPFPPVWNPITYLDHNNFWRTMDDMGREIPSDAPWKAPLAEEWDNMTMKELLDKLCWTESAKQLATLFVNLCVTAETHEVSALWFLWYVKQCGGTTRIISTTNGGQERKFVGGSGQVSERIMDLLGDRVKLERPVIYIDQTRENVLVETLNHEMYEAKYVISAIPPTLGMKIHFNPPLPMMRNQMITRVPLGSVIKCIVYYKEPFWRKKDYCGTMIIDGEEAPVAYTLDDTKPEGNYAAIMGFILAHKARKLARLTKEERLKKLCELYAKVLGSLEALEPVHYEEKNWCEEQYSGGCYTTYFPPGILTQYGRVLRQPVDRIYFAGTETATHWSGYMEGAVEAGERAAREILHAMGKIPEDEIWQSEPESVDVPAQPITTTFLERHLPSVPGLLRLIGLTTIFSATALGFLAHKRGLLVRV
Method: as §1

Aβ42 [1] = conditions: cited from earlier work
Aβ42 [2] = conditions: cited from earlier work; remark: listed apart in the source
[3] = Protonation constants by spectrophotometric titration (Psequad fitting); assay type: physicochemical; conditions: pH 7.4, CL = 1 × 10^−5 M
Method: To formulate the model for the metal chelation mechanism of compounds 4c and 5a, their protonation constants were first determined by spectrophotometric titrations in a 50% (w/w) DMSO/H2O medium by fitting the experimental data with the program Psequad. This working medium was adopted to perform all the equilibrium studies due to certain solubility problems of the compounds. Since the concentration of the compound used in cell studies is low (<7 μM), the final corresponding concentration of DMSO in culture media would be much lower (<1%) and also is not expected to induce modifications of biological tissues.
The two positional isomeric hybrids 4c and 5a were titrated, alone or in the presence of the metal ions, in a 50% w/w DMSO/H2O medium, at T = 25.0 ± 0.1 °C and ionic strength of (I) 0.1 M KCl, by using a 0.1 M KOH (50% w/w DMSO/H2O) titrant solution. The glass and Ag/AgCl reference electrodes were previously conditioned in different DMSO/H2O mixtures of increasing DMSO % compositions, and the response of the glass electrode was evaluated by strong acid–strong base (HCl/KOH) calibrations with the determination of the Nernst parameters by Gran’s method. […] Under these specified experimental conditions, the pKw value (14.95) was determined and subsequently used in the calculations. […]

[4] = Cu(II) complexation by spectrophotometric titration; assay type: physicochemical
Method: (§2) The metal complexation studies were performed by spectrophotometric titration, in the same 50% w/w DMSO/water medium used for both ligands alone, with fitting analysis of the UV-Vis spectra by Psequad. The calculated metal-chelating equilibrium models, included in Table 1, show good chelating capacity towards Cu(II) (pCu~10.3–13.6) and Fe(III) (pFe~16.8–17.4), involving complex species with a 1:1 to 1:2 or 1:1 to 1:3 M/L ratio, respectively. Metal coordination is expected to occur primarily through the phenolic oxygen and the imidazole nitrogen N(3) of the BIM moiety.
(§3) The two positional isomeric hybrids 4c and 5a were titrated, alone or in the presence of the metal ions, in a 50% w/w DMSO/H2O medium, at T = 25.0 ± 0.1 °C and ionic strength of (I) 0.1 M KCl, by using a 0.1 M KOH (50% w/w DMSO/H2O) titrant solution. The glass and Ag/AgCl reference electrodes were previously conditioned in different DMSO/H2O mixtures of increasing DMSO % compositions, and the response of the glass electrode was evaluated by strong acid–strong base (HCl/KOH) calibrations with the determination of the Nernst parameters by Gran’s method. […] The spectrophotometric measurements were carried out in a 250–450 nm (L, Cu/L systems) or 250–650 nm (L, Fe/L systems) wavelength range at pH ca 2.5–8.0. Under these specified experimental conditions, the pKw value (14.95) was determined and subsequently used in the calculations. The stepwise protonation constants of the ligands, Ki = [HiL]/[Hi−1L][H], and the overall metal–complex stability constants, βMmHhLl = [MmHhLl]/[M]^m[H]^h[L]^l, were calculated by fitting the spectrophotometric data with the Psequad program. The metal hydrolysis model was determined under the established experimental conditions (I = 0.1 M KCl, 50% w/w DMSO/H2O, T = 25.0 ± 0.1 °C) and the following values of stability constants were included in the equilibrium models related to the Fe(III)/L and Cu(II)/L systems: log βFeH−1 = −4.07, log βFeH−3 = −11.42; log βCu2H−2 = −9.99. The species distribution curves were obtained with the Hyss program.

[5] = Fe(III) complexation by spectrophotometric titration; assay type: physicochemical
Method: as §2, §3

[6] = presence of copper (40 µM), 20 µM inhibitor, thioflavin-T fluorescence
[7] = absence of copper, 20 µM inhibitor, thioflavin-T fluorescence
[8] = pM = −log[M] at pH 7.4, CL/CM = 10, CM = 10^−6 M

| Compound | IC50 (hMAO-A) | hMAO isoform selectivity (hMAO-A) | inhibition at 10 µM (hMAO-B) | Aβ42 Cu-ind. Aggreg. Inhib. (Aβ42 [1]; [6]) | Aβ42 Self- Aggreg. Inhib. (Aβ42 [2]; [7]) | inhibition at 10 µM (hMAO-A) | also measured |
| --- | --- | --- | --- | --- | --- | --- | --- |
| CCN(C)C(=O)Oc1cccc(NC(=O)c2ccc3[nH]c(-c4ccccc4O)nc3c2)c1 [4a] | 0.74 ± 0.07 µM | selective for isoform A | 28% | 41.2% | 39.0% |  | protection on MPP+-induced toxicity (cell viability, MTT) (SH-SY5Y cells): significant protection |
| CCN(C)C(=O)Oc1cccc(CNC(=O)c2ccc3[nH]c(-c4ccccc4O)nc3c2)c1 [4b] | 8.6 ± 0.9 µM | selective for isoform A | 43% | 48.8% | 39.6% |  |  |
| CCN(C)C(=O)Oc1cccc(CCNC(=O)c2ccc3[nH]c(-c4ccccc4O)nc3c2)c1 [4c] |  |  | 33% | 22.0% | 21.2% | 30% | predominant neutral species HL [3]: 97.4%; logβCumHhLl, global formation constant, species (1–11) ([4]; CuH−1L (1–11), T = 25.0 ± 0.1 °C, I = 0.1 M KCl, 50% w/w DMSO/water): 3.40(5); logβCumHhLl, global formation constant, species (102) ([4]; CuL2 (102), T = 25.0 ± 0.1 °C, I = 0.1 M KCl, 50% w/w DMSO/water): 17.16(8); logβCumHhLl, global formation constant, species (101) ([4]; CuL (101), T = 25.0 ± 0.1 °C, I = 0.1 M KCl, 50% w/w DMSO/water): 9.09(5); Kd ([4]; calculated at pH 7.4, read-out: conditional dissociation constant (K’d) for the copper complex): 0.032 µM; pM (pCu) [4, 8]: 10.3; log βFemHhLl, global formation constant, species (102) ([5]; FeL2 (102), T = 25.0 ± 0.1 °C, I = 0.1 M KCl, 50% w/w DMSO/water): 20.35(7); log βFemHhLl, global formation constant, species (103) ([5]; FeL3 (103), T = 25.0 ± 0.1 °C, I = 0.1 M KCl, 50% w/w DMSO/water): 28.40(6); log βFemHhLl, global formation constant, species (101) ([5]; FeL (101), T = 25.0 ± 0.1 °C, I = 0.1 M KCl, 50% w/w DMSO/water): 11.57(6); pM (pFe) [5, 8]: 16.8 |
| CCN(C)C(=O)Oc1ccc(CCCNC(=O)c2ccc3[nH]c(-c4ccccc4O)nc3c2)cc1 [4d] | 11 ± 1 µM | selective for isoform A | 43% | 21.3% | 20.1% |  |  |
| CCN(C)C(=O)Oc1cccc(CNC(=O)c2cccc3[nH]c(-c4ccccc4O)nc23)c1 [5b] |  |  | 34% | 60.8% | 58.7% | 22% | protection on MPP+-induced toxicity (cell viability, MTT) (SH-SY5Y cells): significant protection |
| COc1cc(/C=C/C(=O)CC(=O)/C=C/c2ccc(O)c(OC)c2)ccc1O [Curcumin, curcumin, reference compound] |  |  |  |  |  |  | Aβ42 Cu-ind. Aggreg. Inhib. (Aβ42 [1]): 62.7%; Aβ42 Self- Aggreg. Inhib. (Aβ42 [2]): 65.7% |
| C[n+]1ccc(-c2ccccc2)cc1 [MPP^+, 1-methyl-4-phenylpyridinium, reference compound] |  |  |  |  |  |  | decrease in cell viability compared with untreated cells (SH-SY5Y cells; MPP+ 0.5 mM, 24 h, MTT): approximately 30% |
| C[C@H](NCc1ccc(OCc2cccc(F)c2)cc1)C(N)=O [Safinamide, safinamide, reference compound] |  |  |  |  |  | 13% |  |
